The values below come from publication PMC12283027, “Development of Potent and Selective RIPK1 Degraders Targeting Its Nonenzymatic Function for Cancer Treatment” (Journal of Medicinal Chemistry, 2025).

The target of the experiment is T1, Receptor-interacting protein kinase 1 (RIPK1) (Homo sapiens, UniProt Q13546).
T1 construct: with VHL
As to the kind of experiment: cell-based. More on the design: HiBiT luminescence of CRISPR-tagged endogenous RIPK1 (C-terminal HiBiT) after PROTAC treatment; degradation DC50 and Dmax. The following applies: HEK293T-RIPK1-HiBiT cells; read-out: Dmax (HEK293T-RIPK1-HiBiT cell line). Here is the method: Screening of RIPK1 Degraders Using HEK-293T-RIPK1-HiBiT cells  3 Primary screening RIPK1 degraders using HEK293T-RIPK1-HiBiT cell line. Cells were seeded in 96-well plates and treated with test compounds for 20 h. After treatment, Bioluminescence signal reflecting RIPK1 protein level was generated by adding Nano-Glo HiBiT detect reagent. A) Bioluminescence signal was visualized using Bio-Rad ChemiDoc MP Imaging system. The grayscale intensity is positively correlated with protein abundance. B) Relative luminescence Units (RLUs) in each well was measured using CLARIOstar plate reader. DC50 values were calculated by nonlinear regression analysis in GraphPad Prism software. DC50 = dose that reduces RIPK1 protein by 50%. D max = maximum reduction of RIPK1 protein achieved by the compound. Guide RNA oligos for RIPK1 (foward: CACCGA-GCCCAT-CCAGGG-TTAGTTC. reverse: AAACGA-ACTAAC-CCTGGA-TGGGCTC) were cloned into Cas9 expression plasmid (pSpCas9–2A-GFP purchased from Addgene), and cotransfected with donor DNA oligo using FuGENE HD Transfection Reagent (Promega). GFP positive cells were FACS sorted and single clones were screened for HiBiT signal by Nano Glo HiBiT Lytic Detection System (Promega).
A general note: The HiBiT peptide binds its large partner to form an active luciferase.

For orientation: Dmax means the largest share of the target that was removed.

T1 sequence (Q13546 whole entry): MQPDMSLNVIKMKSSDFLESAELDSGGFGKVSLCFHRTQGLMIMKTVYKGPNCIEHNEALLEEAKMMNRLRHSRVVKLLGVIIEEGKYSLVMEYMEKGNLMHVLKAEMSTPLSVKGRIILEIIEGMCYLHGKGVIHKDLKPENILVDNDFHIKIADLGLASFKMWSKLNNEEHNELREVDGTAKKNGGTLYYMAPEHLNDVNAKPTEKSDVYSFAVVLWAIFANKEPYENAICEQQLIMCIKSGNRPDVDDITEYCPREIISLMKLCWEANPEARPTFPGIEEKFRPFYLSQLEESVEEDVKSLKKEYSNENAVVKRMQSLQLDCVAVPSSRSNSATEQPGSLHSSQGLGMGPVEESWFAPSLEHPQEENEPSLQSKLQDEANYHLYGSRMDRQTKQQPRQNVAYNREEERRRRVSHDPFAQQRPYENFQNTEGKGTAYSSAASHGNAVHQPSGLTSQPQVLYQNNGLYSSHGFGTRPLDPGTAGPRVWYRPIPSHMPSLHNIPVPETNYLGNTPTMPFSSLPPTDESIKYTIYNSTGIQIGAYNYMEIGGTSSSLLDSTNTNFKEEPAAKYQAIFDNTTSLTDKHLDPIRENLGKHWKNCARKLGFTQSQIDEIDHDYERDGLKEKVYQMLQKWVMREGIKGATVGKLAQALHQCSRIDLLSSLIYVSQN
T1 sequence (P40337 whole entry partner): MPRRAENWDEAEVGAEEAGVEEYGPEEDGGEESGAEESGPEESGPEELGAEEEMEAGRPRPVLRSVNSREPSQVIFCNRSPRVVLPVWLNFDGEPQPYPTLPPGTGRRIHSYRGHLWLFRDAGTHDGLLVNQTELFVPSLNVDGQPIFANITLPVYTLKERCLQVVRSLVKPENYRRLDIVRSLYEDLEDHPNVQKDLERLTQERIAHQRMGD

`Cc1ncsc1-c1ccc([C@H](C)NC(=O)[C@@H]2C[C@@H](O)CN2C(=O)[C@@H](NC(=O)CN2CCN(CC3CCN(CC4CCN(C(=O)Cn5cc(-c6cnc(N)c7c(-c8ccc9c(c8)CCN9C(=O)Cc8ccccc8)csc67)cn5)CC4)CC3)CC2)C(C)(C)C)cc1` [225-5, (2S,4R)-1-((S)-2-(2-(4-((1-((1-(2-(4-(4-Amino-3-(1-(2-phenylacetyl)indolin-5-yl)thieno[3,2-c]pyridin-7-yl)-1H-pyrazol-1-yl)acetyl)piperidin-4-yl)methyl)piperidin-4-yl)methyl)piperazin-1-yl)acetamido)-3,3-dimethylbutanoyl)-4-hydroxy-N-((S)-1-(4-(4-methylthiazol-5-yl)phenyl)ethyl)pyrrolidine-2-carboxamide]: the Dmax stood at 93%. The same measure for `Cc1ncsc1-c1ccc([C@H](C)NC(=O)[C@@H]2C[C@@H](O)CN2C(=O)[C@@H](NC(=O)C2CCN(CCNC(=O)Cn3cc(-c4cnc(N)c5c(-c6ccc7c(c6)CCN7C(=O)Cc6ccccc6)csc45)cn3)CC2)C(C)(C)C)cc1` [225-6]: 34%; for `Cc1ncsc1-c1ccc([C@H](C)NC(=O)[C@@H]2C[C@@H](O)CN2C(=O)[C@@H](NC(=O)C2CCN(CCCNC(=O)Cn3cc(-c4cnc(N)c5c(-c6ccc7c(c6)CCN7C(=O)Cc6ccccc6)csc45)cn3)CC2)C(C)(C)C)cc1` [225-7]: 22%. Next, `Cc1ncsc1-c1ccc([C@H](C)NC(=O)[C@@H]2C[C@@H](O)CN2C(=O)[C@@H](NC(=O)CCCCCN2CCN(C(=O)Cn3cc(-c4cnc(N)c5c(-c6ccc7c(c6)CCN7C(=O)Cc6ccccc6)csc45)cn3)CC2)C(C)(C)C)cc1` [229-1]: 58%; `Cc1ncsc1-c1ccc([C@H](C)NC(=O)[C@@H]2C[C@@H](O)CN2C(=O)[C@@H](NC(=O)CCCCNC2CCN(C(=O)Cn3cc(-c4cnc(N)c5c(-c6ccc7c(c6)CCN7C(=O)Cc6ccccc6)csc45)cn3)CC2)C(C)(C)C)cc1` [229-2]: 9%; `Cc1ncsc1-c1ccc([C@H](C)NC(=O)[C@@H]2C[C@@H](O)CN2C(=O)[C@@H](NC(=O)CCN2CCN(C(=O)CNC(=O)Cn3cc(-c4cnc(N)c5c(-c6ccc7c(c6)CCN7C(=O)Cc6ccccc6)csc45)cn3)CC2)C(C)(C)C)cc1` [229-3]: 5%.

As for `Cc1ncsc1-c1ccc([C@H](C)NC(=O)[C@@H]2C[C@@H](O)CN2C(=O)[C@@H](NC(=O)CCN2CCN(CCNC(=O)Cn3cc(-c4cnc(N)c5c(-c6ccc7c(c6)CCN7C(=O)Cc6ccccc6)csc45)cn3)CC2)C(C)(C)C)cc1` [229-4], the Dmax is 25%.
